This is an account of results in US11279703B2, “Fused pyrimidine compounds as BRD4 and JAK2 dual inhibitors and methods for use thereof” (APTOSE BIOSCIENCES INC., priority 2016, dated 2022).

Assay [1] addresses BRD4-BD1 (Homo sapiens (Human), UniProt O60885). The assay can be described thus: AlphaLisa bromodomain binding assay, BRD4-BD1. As to conditions: Table 6; read-out: BRD4(1) IC50. In general terms: Bead proximity is the source of the signal in Alpha formats.
Assay [2] deals with BRD4-BD2 (Homo sapiens (Human), UniProt O60885). Briefly: AlphaLisa bromodomain binding assay, BRD4-BD2. The following applies: Table 6; read-out: BRD4(2) IC50. An excerpt:
(§1) An AlphaLisa assay was used to observe bromodomain binding and measure IC50s for the compounds disclosed herein. An AlphaLisa assay is a bead-based assay used to detect interactions between bromodomains and polyacetylated histone peptides. Donor and acceptor beads bound to target and ligand are brought into proximity by this protein-protein interaction.
(§2) Equipment Required • 1. […] Plate centrifuge • 3. Plate shaker • 4. […] Single channel and multi-channel pipettes • 6. Microplate reader (Pherastar)
(§3) Stock and Final Assay Concentrations (FAC) • 1. All reference and test compounds are made at a concentration of 10 mM in DMSO. Compounds are serially diluted in DMSO and a FAC starting from 10 μM to 10 point 3 fold serial dilutions is arrived. FAC of DMSO is 1%. • 2. Enzyme stock and FAC
(§4) Biotinylated substrate (Acetylated histone H4, biotinylated substrate—cat no. AS64989-025, Anaspec) stock and FAC
(§5) • 4. Acceptor and donor beads stock and FAC
(§6) Buffers • For the enzyme and substrate dilution following buffer is used (for 50 ml) • HEPES: 50 mM 2.5 ml • NaCl: 25 mM 1.25 ml • DTT: 10 mM 0.05 ml • BSA: 0.1% 0.05 g • MilliQ water: 45.7 ml • For dilution of acceptor and donor beads AlphaLISA 5× epigenetics Buffer Perkin Elmer (Cat: AL008C) is used at 1× concentration.
(§7) Procedure • 1. […] Tap the plate gently • 3. […] Cover with plate sealer • 5. […] Incubate the plate at room temperature for 10 minutes • 7. Add 10 μl of the substrate • 8. Cover with plate sealer • 9. […] Cover with plate sealer • 14. […] Cover with plate sealer • 18.
(§8) The percent inhibition is calculated in the excel analysis template and the IC50 values are subsequently determined using a sigmoidal dose-response curve (variable slope) using GraphPad Prism® 5 software.

The target of assay [3] is BRD2-BD1 (Homo sapiens (Human), UniProt P25440). Briefly: AlphaLisa bromodomain binding assay, BRD2-BD1. The following applies: Table 6; read-out: BRD2(1) IC50.
Excerpt: as §1, §2, §3, §4, §5, §6, §7, §8

Assay [4] concerns the target BRD3-BD1 (Homo sapiens (Human), UniProt Q15059). The assay can be described thus: AlphaLisa bromodomain binding assay, BRD3-BD1. As to conditions: Table 6; read-out: BRD3(1) IC50.
Excerpt: as §1, §2, §3, §4, §5, §6, §7, §8

For assay [5], the target named is BRDT-BD1 (Homo sapiens (Human), UniProt Q58F21). Briefly: AlphaLisa bromodomain binding assay, BRDT-BD1. The following applies: Table 6; read-out: BRDT(1) IC50.
Excerpt: as §1, §2, §3, §4, §5, §6, §7, §8

In assay [6] the target is JAK2 (Homo sapiens (Human), UniProt O60674). The assay can be described thus: HTRF kinase assay, JAK2. Format: biochemical. As to conditions: Table 6. For orientation: TR-FRET usually uses a lanthanide donor and a delayed reading to cut background.
In assay [7] the target is JAK1 (Homo sapiens (Human), UniProt P23458). The assay can be described thus: HTRF kinase assay, JAK1. Format: biochemical. As to conditions: Table 6.
Excerpt: (§9) A kinase assay with HTRF was used to observe JAK activity and calculate the IC50s of compounds disclosed herein. HTRF is an enzymatic assay used to determine the amount of phosphorylated peptide. FRET (Fluorescence Resonance Energy Transfer) is based on the transfer of energy between two fluorophores—a donor and an acceptor—when in close proximity. Molecular interactions between biomolecules can be assessed by coupling each partner with a fluorescent label and by detecting the level of energy transfer. The amount of phopshorylated peptide can be detected using a combination of a Eu 3+Cryptate labeled anti-phospho residue antibody, SA-XL665 and a biotinylated substrate. The signal is proportional to the concentration of phospho-residues.
(§10) Equipment Required • 1. […] Plate centrifuge • 3. Plate shaker • 4. […] Single channel and multi-channel pipettes • 6. Microplate reader (Pherastar)]
(§11) Stock and Final Assay Concentrations (FAC) • 1. All reference and test compounds are made at a concentration of 10 mM in DMSO. Compounds are serially diluted in DMSO and a FAC starting from 10 μM to 10 point 3 fold serial dilutions is arrived. For Ruxolitinib the starting FAC is 1 μM. FAC of DMSO is 1%. • 2. Enzyme stock and FAC
(§12) • JAK-1: Invtirogen Cat: PR8767C • JAK-2: Invtirogen Cat: PR7820B • JAK-3: Invtirogen Cat: PR7507B • 3. Substrate (synthetic peptide-Biotinylated-N-terminal tag-[…] from Biopeptide) stock and FAC
(§13) • Adenosine 5′-triphosphate disodium salt hydrate: Sigma Cat: A26209 • 5. […] Buffers • Base buffer (for 50 ml)
(§14) • HTRF buffer: • 50 mM Tris-HCl, pH—7.5 • 100 mM NaCl • 0.1% BSA • 0.05% Tween20 • 0.5 mM EDTA
(§15) To a 384 well black-plate: • 1. Add 17 μL of the buffer to each well of the 384-well black plate • 2. […] Add 5 μl of the enzyme to each well of the plate • 4. Add 10 μl of the substrate and ATP mix to all the wells • 5. Cover with plate sealer • 6. […] Incubate at room temperature for 1 hour on shaker • 8. […] Add 37.5 μL of the HTRF mix to these wells. • 9. Incubate the plate at room temperature on shaker for 45 minutes. • 10.
as §8

Assay [8] addresses JAK3 (Homo sapiens (Human), UniProt P52333). The assay can be described thus: HTRF kinase assay, JAK3. Format: biochemical. The following applies: Table 6.
Excerpt: as §9, §10, §11, §12, §13, §14, §15, §8

Chain of BRD3-BD1 (Q15059 34-140): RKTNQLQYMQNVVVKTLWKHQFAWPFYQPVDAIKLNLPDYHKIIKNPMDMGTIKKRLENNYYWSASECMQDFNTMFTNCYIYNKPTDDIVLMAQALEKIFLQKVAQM
Chain of JAK3 (P52333 whole entry): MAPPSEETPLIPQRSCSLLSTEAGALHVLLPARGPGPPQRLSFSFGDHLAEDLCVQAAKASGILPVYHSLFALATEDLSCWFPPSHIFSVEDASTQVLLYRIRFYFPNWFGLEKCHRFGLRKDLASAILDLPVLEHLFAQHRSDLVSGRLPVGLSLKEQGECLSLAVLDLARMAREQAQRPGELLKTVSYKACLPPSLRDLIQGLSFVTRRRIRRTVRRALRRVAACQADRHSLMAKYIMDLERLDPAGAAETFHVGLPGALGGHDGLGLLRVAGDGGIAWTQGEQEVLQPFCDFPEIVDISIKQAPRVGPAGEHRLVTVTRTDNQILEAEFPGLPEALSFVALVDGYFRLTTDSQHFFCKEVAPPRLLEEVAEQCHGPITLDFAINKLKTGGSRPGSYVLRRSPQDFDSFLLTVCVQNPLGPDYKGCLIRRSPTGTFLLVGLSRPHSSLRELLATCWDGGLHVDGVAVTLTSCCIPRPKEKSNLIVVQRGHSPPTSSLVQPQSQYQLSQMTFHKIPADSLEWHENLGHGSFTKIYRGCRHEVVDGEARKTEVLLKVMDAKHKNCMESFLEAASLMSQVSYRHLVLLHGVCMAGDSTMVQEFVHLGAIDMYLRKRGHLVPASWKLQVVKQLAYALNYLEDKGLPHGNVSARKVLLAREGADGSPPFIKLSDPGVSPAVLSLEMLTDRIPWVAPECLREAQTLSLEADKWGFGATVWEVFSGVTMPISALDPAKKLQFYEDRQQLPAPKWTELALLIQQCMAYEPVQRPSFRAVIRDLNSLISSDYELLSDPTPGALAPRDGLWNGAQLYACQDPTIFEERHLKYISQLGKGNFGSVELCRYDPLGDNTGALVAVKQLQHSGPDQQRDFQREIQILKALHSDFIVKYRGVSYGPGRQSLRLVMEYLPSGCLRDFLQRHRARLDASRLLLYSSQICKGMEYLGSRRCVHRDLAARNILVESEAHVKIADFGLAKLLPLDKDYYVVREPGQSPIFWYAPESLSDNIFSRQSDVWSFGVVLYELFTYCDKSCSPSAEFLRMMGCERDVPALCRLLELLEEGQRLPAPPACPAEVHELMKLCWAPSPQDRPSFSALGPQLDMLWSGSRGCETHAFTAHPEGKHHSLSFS
Chain of BRD2-BD1 (P25440 74-180): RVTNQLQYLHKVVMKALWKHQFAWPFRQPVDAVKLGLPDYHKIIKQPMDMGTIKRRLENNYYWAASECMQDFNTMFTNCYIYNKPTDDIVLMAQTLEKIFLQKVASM
Chain of JAK2 (O60674 whole entry): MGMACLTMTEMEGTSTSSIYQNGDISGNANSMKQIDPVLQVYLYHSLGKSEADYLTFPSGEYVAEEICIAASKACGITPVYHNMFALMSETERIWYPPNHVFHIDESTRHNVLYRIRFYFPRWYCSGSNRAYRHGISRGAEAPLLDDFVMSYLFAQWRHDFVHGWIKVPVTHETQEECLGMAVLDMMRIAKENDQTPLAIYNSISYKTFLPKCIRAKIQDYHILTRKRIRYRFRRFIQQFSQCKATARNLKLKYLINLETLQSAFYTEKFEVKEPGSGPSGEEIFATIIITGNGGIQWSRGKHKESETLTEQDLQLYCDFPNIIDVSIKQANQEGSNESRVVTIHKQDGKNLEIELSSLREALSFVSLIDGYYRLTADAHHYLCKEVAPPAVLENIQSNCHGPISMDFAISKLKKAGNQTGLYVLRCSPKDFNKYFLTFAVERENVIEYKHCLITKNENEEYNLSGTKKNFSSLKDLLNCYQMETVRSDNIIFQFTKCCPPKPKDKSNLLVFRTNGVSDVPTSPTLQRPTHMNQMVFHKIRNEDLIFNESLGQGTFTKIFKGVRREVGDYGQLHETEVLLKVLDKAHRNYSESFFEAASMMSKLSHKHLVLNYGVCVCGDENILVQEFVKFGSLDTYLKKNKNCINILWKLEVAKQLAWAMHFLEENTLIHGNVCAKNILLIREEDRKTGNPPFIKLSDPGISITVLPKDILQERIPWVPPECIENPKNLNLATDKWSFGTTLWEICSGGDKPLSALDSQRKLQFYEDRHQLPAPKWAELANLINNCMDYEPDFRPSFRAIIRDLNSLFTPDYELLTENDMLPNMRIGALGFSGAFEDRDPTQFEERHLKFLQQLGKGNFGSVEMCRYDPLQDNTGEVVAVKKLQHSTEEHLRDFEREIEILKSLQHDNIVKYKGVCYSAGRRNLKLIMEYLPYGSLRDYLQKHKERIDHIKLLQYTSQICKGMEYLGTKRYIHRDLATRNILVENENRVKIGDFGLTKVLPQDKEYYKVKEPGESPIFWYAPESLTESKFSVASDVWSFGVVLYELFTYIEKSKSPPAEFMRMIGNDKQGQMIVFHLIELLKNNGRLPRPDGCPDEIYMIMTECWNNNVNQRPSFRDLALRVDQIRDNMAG
Chain of JAK1 (P23458 whole entry): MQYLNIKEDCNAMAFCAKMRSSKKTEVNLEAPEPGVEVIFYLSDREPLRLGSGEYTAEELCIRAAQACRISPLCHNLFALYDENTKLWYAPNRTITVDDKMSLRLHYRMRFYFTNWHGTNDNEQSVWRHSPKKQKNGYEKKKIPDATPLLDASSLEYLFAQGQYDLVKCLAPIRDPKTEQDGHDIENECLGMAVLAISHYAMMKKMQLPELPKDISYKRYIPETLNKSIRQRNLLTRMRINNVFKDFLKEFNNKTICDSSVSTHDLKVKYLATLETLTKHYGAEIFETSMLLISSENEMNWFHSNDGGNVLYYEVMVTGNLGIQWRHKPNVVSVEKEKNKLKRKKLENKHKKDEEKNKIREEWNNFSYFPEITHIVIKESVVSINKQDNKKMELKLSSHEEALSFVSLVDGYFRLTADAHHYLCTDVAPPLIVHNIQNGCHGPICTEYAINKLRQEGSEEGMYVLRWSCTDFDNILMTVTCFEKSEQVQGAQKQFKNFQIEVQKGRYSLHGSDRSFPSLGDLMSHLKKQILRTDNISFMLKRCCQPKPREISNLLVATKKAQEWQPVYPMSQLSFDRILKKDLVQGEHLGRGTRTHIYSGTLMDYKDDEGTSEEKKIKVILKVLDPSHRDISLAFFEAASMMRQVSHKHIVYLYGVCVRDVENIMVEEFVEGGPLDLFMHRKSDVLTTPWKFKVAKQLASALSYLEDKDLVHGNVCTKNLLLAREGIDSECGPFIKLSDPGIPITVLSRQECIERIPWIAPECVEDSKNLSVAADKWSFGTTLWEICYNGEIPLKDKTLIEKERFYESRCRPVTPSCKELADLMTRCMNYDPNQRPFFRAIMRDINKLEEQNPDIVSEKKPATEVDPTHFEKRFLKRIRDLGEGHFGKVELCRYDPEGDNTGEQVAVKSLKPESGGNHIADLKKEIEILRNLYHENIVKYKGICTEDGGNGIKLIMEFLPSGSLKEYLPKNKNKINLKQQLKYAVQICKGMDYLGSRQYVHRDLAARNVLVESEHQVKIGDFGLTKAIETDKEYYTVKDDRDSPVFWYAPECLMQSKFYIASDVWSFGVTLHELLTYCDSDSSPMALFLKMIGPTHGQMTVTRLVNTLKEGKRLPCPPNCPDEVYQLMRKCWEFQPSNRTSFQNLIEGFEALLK

Consider `CN1CCN(c2ccc(Nc3ncc4ccn(-c5cccc(NS(=O)(=O)C(C)(C)C)c5)c4n3)cc2F)CC1`, for which the IC50 (as a rule, the point on the concentration scale where inhibition reaches its midpoint) in assay [1] was found to be 434 nM; in assay [2] it was 487 nM; in assay [3], 2860 nM; in assay [4] it was 652 nM; in assay [5] it was 1110 nM; in assay [6], 18 nM. For the same compound, the results for the IC50 in assay [7] and in assay [8] were 424 nM and 125 nM, respectively.

For the compound `CN1CCC(NC(=O)c2ccc(Nc3ncc4ccn(-c5cccc(NS(=O)(=O)C(C)(C)C)c5)c4n3)cc2F)CC1`, the IC50 in assay [1] came out at 240 nM; in assay [2], 156 nM; in assay [3], 314 nM; in assay [4] it was 89 nM; in assay [5] it was 230 nM; in assay [6], 11.5 nM. For the same compound, the IC50 in assay [7] worked out at 57 nM; in assay [8], 103 nM.

As for `COc1cc(Nc2ncc3ccn(-c4cccc(NS(=O)(=O)C(C)(C)C)c4)c3n2)ccc1N1CCN(C)CC1`, the IC50 in assay [1] is 431 nM; in assay [2], 130 nM; in assay [3] it was 743 nM; in assay [4] it was 161 nM; in assay [5], 363 nM; in assay [7], 293 nM. Also, the IC50 in assay [8] came out at 82 nM.

For the compound `CN1CCN(c2ccc(Nc3ncc4ccn(-c5cccc(NS(=O)(=O)C(C)(C)C)c5)c4n3)cc2C#N)CC1`, the 50% inhibitory concentration (IC50) was found to be 378 nM in assay [1]; 491 nM in assay [2]; 1150 nM in assay [3]; 248 nM in assay [4]; 1000 nM in assay [5]; 18.9 nM in assay [6]. Moreover, the IC50 in assay [7] worked out at 1100 nM; in assay [8], 338 nM.

Consider `CC(C)(C)S(=O)(=O)Nc1cccc(-n2ccc3cnc(Nc4ccc(C(=O)NC5CCNCC5)c(F)c4)nc32)c1`, for which the IC50 in assay [1] is 398 nM; in assay [2], 99 nM; in assay [3] it was 467 nM; in assay [4], 78 nM; in assay [5], 312 nM; in assay [7], 206 nM. For the same compound, the IC50 in assay [8] was determined as 242 nM.

Turning to `CN(C)C1CCN(C(=O)c2ccc(Nc3ncc4ccn(-c5cccc(NS(=O)(=O)C(C)(C)C)c5)c4n3)cc2F)CC1`, the IC50 in assay [1] is 246 nM; in assay [2], 29 nM; in assay [3], 318 nM; in assay [4], 117 nM; in assay [5], 189 nM; in assay [6], 20 nM. Also, the figures for the IC50 in assay [7] and in assay [8] were 1100 nM and 292 nM, respectively.

Take `COc1cc(Nc2ncc3ccn(-c4cccc(NS(=O)(=O)C(C)(C)C)c4)c3n2)ccc1N1CCNCC1`: the IC50 in assay [1] was found to be 402 nM; in assay [2], 128 nM; in assay [3], 548 nM; in assay [4], 142 nM; in assay [5], 320 nM; in assay [6], 2.8 nM. Also, the IC50 in assay [7] was determined as 275 nM; in assay [8], 112 nM.

As to `CNCCNC(=O)Cc1ccc(Nc2ncc3ccn(-c4cccc(NS(=O)(=O)C(C)(C)C)c4)c3n2)cc1`, the IC50 in assay [1] came to 205 nM; in assay [2], 67 nM; in assay [3] it was 576 nM; in assay [4] it was 117 nM; in assay [5], 268 nM; in assay [6] it was 50 nM. Moreover, the IC50 in assay [7] was found to be 178 nM; in assay [8], 253 nM.

As for `CC(C)(C)S(=O)(=O)Nc1cccc(-c2csc3cnc(Nc4ccc(N5CCNCC5)c(F)c4)nc23)c1`, the IC50 in assay [1] is 295 nM; in assay [2], 193 nM; in assay [3], 506 nM; in assay [4], 181 nM; in assay [5], 308 nM; in assay [6], 2 nM. Besides, the IC50 in assay [7] is 169 nM; in assay [8], 61 nM.

Turning to `CN(C)C1CCN(c2ccc(Nc3ncc4scc(-c5ccc(F)c(NS(=O)(=O)C(C)(C)C)c5)c4n3)cc2F)CC1`, the IC50 in assay [1] came out at 108 nM; in assay [2], 91 nM; in assay [3], 292 nM; in assay [4] it was 110 nM; in assay [5] it was 177 nM; in assay [6] it was 8 nM. Moreover, the IC50 in assay [7] turned out to be 927 nM; in assay [8], 97 nM.

In the case of `CN(C)C1CCN(c2ccc(Nc3ncc4scc(-c5ccc(F)c(NS(=O)(=O)C6(C)CC6)c5)c4n3)cc2F)CC1`, the IC50 came to 233 nM in assay [1]; 203 nM in assay [2]; 605 nM in assay [3]; 196 nM in assay [4]; 329 nM in assay [5]; 11 nM in assay [6]. Moreover, the IC50 in assay [7] worked out at 734 nM; in assay [8], 60 nM.

In the case of `CC(C)(C)S(=O)(=O)Nc1cccc(-c2csc3cnc(Nc4ccc5c(c4)CCN4CCNCC54)nc23)c1` (centres unmarked), the IC50 in assay [1] came to 109 nM; in assay [2], 131 nM; in assay [3], 489 nM; in assay [4], 100 nM; in assay [5] it was 281 nM; in assay [6] it was 2 nM. In addition, the IC50 was found to be 44 nM in assay [7] and 18 nM in assay [8].

On to `CN1CCN(c2ccc(Nc3ncc4ccn(-c5cccc(NS(=O)(=O)C(C)(C)C)c5)c4n3)cc2)CC1` [drawing 260], for which the IC50 in assay [1] was found to be 220 nM; in assay [2] it was 175 nM; in assay [3] it was 700 nM; in assay [4], 270 nM; in assay [5] it was 696 nM; in assay [7], 243 nM. For the same compound, the IC50 in assay [8] stood at 127 nM.

On to `CN1CCN(c2ccc(Nc3ncc4ccn(-c5cccc(NS(=O)(=O)C6CC6)c5)c4n3)cc2)CC1` [drawing 278], for which the IC50 was 355 nM in assay [1]; 729 nM in assay [2]; 1900 nM in assay [3]; 825 nM in assay [4]; 2500 nM in assay [5]; 2.5 nM in assay [6]. Moreover, the IC50 in assay [7] was 244 nM; in assay [8], 69 nM.

Turning to `CC(C)(C)S(=O)(=O)Nc1cccc(-n2ccc3cnc(Nc4ccc(N5CCNCC5)cc4)nc32)c1` [drawing 283], the IC50 in assay [1] turned out to be 152 nM; in assay [2], 254 nM; in assay [3], 1580 nM; in assay [4] it was 500 nM; in assay [5] it was 632 nM; in assay [6] it was 12 nM. In addition, the figures for the IC50 in assay [7] and in assay [8] were 418 nM and 67 nM, respectively.

For the compound `CN1CCN(c2ccc(Nc3ncc4ccn(-c5ccc(F)c(NS(=O)(=O)C(C)(C)C)c5)c4n3)cc2)CC1` [drawing 295], the IC50 in assay [1] turned out to be 128 nM; in assay [2] it was 67.5 nM; in assay [3] it was 490 nM; in assay [4] it was 109 nM; in assay [5], 182 nM; in assay [6], 35 nM. The IC50 in assay [7] was 972 nM; in assay [8], 105 nM.
